Measured values taken from US8741928B2, “Protected antimicrobial compounds for high temperature applications” (Dow Global Technologies LLC, priority 2010, dated 2014).

What was measured:
[1] = Analysis of glutaraldehyde release after heat-aging; type: physicochemical; conditions: sterile deionized water, molar equivalent of 2000 ppm glutaraldehyde, initial and after heat-aging at 55° C. for 2 h or 24 h; for Glutaraldehyde concentration after pre-column derivatization by HPLC: acidic derivatization
Protocol: Samples of the AMPD-adduct and TA-adduct are analyzed for glutaraldehyde content. Samples are prepared in sterile deionized water at the molar equivalent of 2000 ppm glutaraldehyde. A standard of 500 ppm glutaraldehyde is also prepared. An initial measurement is taken just after sample preparation. Samples are then heat-aged at 55° C. for 2 h or 24 h and analyzed again. Glutaraldehyde concentration is measured directly via GC and after pre-column derivatization by HPLC.

T. thermophilus = assay: Biocidal efficacy against thermophilic bacteria at 70° C.; type: cell-based; conditions: for Kill of bacteria maintained over 21 days: equivalent to 50 ppm glutaraldehyde, 4 hr exposure between challenge and enumeration, weekly challenges over 21 days
Protocol: b. Thermophilic Bacteria. A 48-72 hour old culture of T. thermophilus is pelleted by centrifuging at 2000 g and the pellet resuspended in 10 times the culture volume of buffer (PBS or carbonate-buffered synthetic freshwater). The suspension is distributed into 10 mL aliquots in glass screw-cap tubes. Each tube is then treated with glutaraldehyde or an adduct and incubated at 70° C. At indicated timepoints, cell density in each tube is measured via dilution to extinction by serially diluting a sample and plating dilutions on solid media.

SMILES: OCC12COC3CCCC(OC1)N32 (centres unmarked) [TA-adduct, (octahydro-1,4-dioxa-2a^1-azacyclopenta[cd]inden-2a-yl)methanol]
- Glutaraldehyde concentration measured directly via GC [1]: No glutaraldehyde is detected
- Glutaraldehyde concentration after pre-column derivatization by HPLC [1]: low levels of glutaraldehyde
- Kill of bacteria maintained over 21 days (T. thermophilus): 4 log

SMILES: O=CCCCC=O [glutaraldehyde, reference compound]
- Control of bacterial levels after 5 days (T. thermophilus; equivalent of 100 ppm glutaraldehyde, after 5 days): fails to control bacterial levels
- Kill of bacteria maintained over 21 days (T. thermophilus): 4 log

SMILES: CC12COC3CCCC(OC1)N32 (centres unmarked) [AMPD-adduct, 2a-methyloctahydro-1,4-dioxa-2a1-azacyclopenta[cd]indene]
- Glutaraldehyde concentration measured directly via GC [1]: No glutaraldehyde is detected
- Glutaraldehyde concentration after pre-column derivatization by HPLC [1]: low levels of glutaraldehyde
- Kill of bacteria maintained over 21 days (T. thermophilus): 4 log
